The source of these data is US9340523B2, “Certain dipeptidyl peptidase inhibitors” (FOCHON PHARMA, INC., priority 2009, dated 2016).

Molecules are shown by their SMILES.

Recombinant human DPP-IV, sequence (P27487 whole entry): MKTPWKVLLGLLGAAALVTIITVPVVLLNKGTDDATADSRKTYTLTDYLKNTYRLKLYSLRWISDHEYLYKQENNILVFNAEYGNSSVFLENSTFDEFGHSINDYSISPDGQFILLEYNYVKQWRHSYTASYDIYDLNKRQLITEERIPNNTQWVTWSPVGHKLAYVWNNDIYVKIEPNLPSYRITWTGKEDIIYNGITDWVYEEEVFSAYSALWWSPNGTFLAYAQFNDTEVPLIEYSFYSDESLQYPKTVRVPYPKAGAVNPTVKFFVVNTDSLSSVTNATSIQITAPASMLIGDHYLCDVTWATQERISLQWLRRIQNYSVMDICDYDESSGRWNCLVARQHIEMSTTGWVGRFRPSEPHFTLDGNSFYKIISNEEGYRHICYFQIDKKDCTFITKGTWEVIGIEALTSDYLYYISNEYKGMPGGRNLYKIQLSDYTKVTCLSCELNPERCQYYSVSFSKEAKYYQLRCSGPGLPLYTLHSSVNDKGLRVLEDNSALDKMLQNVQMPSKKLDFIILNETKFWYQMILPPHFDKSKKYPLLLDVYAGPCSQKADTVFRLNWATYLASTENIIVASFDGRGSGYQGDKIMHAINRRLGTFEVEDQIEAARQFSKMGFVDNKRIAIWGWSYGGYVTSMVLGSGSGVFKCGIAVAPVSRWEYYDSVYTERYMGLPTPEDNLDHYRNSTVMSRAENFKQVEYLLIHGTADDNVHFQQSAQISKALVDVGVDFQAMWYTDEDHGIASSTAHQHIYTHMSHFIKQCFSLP

The assay has as its target Recombinant human DPP-IV (Homo sapiens, UniProt P27487). In words: DPP-IV assay in vitro (H-Ala-Pro-AFC fluorescence). The assay is classed as biochemical. The note with it: recombinant human DPP-IV 7.8 ng/ml, 30 min pre-incubation, H-Ala-Pro-AFC 50 μM. The protocol:
DPP-IV Assay Solutions of test compounds in varying concentrations (10^−5 mol/L, 10^−6 mol/L, 10^−7 mol/L, 10^−8 mol/L, 10^−9 mol/L, 10^−10 mol/L, 10^−11 mol/L, and 10^−12 mol/L) were prepared in dimethyl sulfoxide (DMSO) and then diluted into assay buffer comprising: 10 mM Tris-HCl pH 8.0, 0.2 M NaCl, and 0.1% BSA. Recombinant human DPP-IV (7.8 ng/ml final concentration) was added to the dilutions and pre-incubated for 30 mins at room temperature before the reaction was initiated with H-Ala-Pro-AFC (50 μM final concentration). The total volume of the reaction mixture was 100 μl.
The fluorescence of the mixture was measured after 30 minutes (excitation at 405 nm; emission at 535 nm). Inhibition constants (IC50) were calculated by GraphPad Prism.
As a reminder, the IC50 is the point on the concentration scale where inhibition reaches its midpoint. For the molecule `Cc1nnc(N2CCC[C@@H](N)C2)n(Cc2cc(F)ccc2Cl)c1=O` [Example 4, (R)-3-(3-aminopiperidin-1-yl)-4-(2-chloro-5-fluorobenzyl)-6-methyl-1,2,4-triazin-5(4H)-one], the 50% inhibitory concentration (IC50) turned out to be 640 nM.
As for `Cc1nnc(N2CCC[C@@H](N)C2)n(Cc2cc(F)ccc2Br)c1=O` [Example 2, (R)-3-(3-aminopiperidin-1-yl)-4-(2-bromo-5-fluorobenzyl)-6-methyl-1,2,4-triazin-5(4H)-one], the IC50 was 242 nM.
Regarding `Cc1nnc(N2CCC[C@@H](N)C2)n(Cc2ccccc2C#N)c1=O` [Example 1, (R)-2-((3-(3-aminopiperidin-1-yl)-6-methyl-5-oxo-1,2,4-triazin-4(5H)-yl)methyl)benzonitrile], the 50% inhibitory concentration (IC50) came out at 22 nM.
